Patent US8202554B2, “Extract of the family dioscoreaceae and composition for preventing or treating peripheral neuropathy comprising the same” (priority 2005, dated 2012)

Columns and labels:
[1] = test system: sorbitol in the sciatic nerve; test: Change in amount of sorbitol in sciatic nerve of diabetes-induced mouse (HPLC); format: in vivo, alloxan-induced diabetic ICR mice; settings: diabetes-induced mice, 10 mg/kg p.o. three times per week, 2 weeks
Protocol: The therapeutic effect of the compound according to the present invention on the neuropathy was identified by measuring a change in the amount of sorbitol in the sciatic nerve.
7-week old male ICR mice underwent alimentary abstinence for 18 hours, and then alloxan dissolved in a physiological saline was once injected to them by intraperitoneal injection in an amount of 160 mg/kg to induce diabetes. Mice that maintained their fasting blood sugar to 200 mg/dl or more for one week, that is, diabetes-induced mice were selected and then divided into a control group (n=3), and a compound-administered group (n=3). The control group was administered with 0.2 ml of a solution of dimethylsulfoxide:ethanol (3:1), and the compound-administered group was administered with the compound of Formula 2 dissolved in a solution of dimethylsulfoxide:ethanol (3:1) in an amount of 10 mg/kg. 7-week old male ICR mice in which diabetes was not induced were grouped as a normal group (n=3), and the normal group was administered with 0.2 ml of a solution of dimethylsulfoxide:ethanol (3:1). […] Administration-completed mice were sacrificed by cervical dislocation, and then the amount of the sorbitol in the sciatic nerve was measured by HPLC (see FIG. 8). […]

[2] = test system: sciatic nerve of diabetes-induced mouse; test: Histological comparison of sciatic nerve of diabetes-induced mouse; format: in vivo, alloxan-induced diabetic ICR mice; settings: diabetes-induced mice, compound 10 mg/kg p.o. three times per week, 2 months; toluidine blue, 600x/1200x
Protocol: The therapeutic effect of the compound according to the present invention on the neuropathy was identified by measuring a histological change of the sciatic nerve.
7-week old male ICR mice underwent alimentary abstinence for 18 hours, and then alloxan dissolved in a physiological saline was once injected to them by intraperitoneal injection in an amount of 160 mg/kg to induce diabetes. Mice that maintained their fasting blood sugar to 200 mg/dl or more for one week, that is, diabetes-induced mice were selected and then divided into a control group (n=5), an extract-administered group (n=5), and a compound-administered group (n=3). The control group was […] with 0.2 ml of a solution of dimethylsulfoxide:ethanol (3:1), the extract-administered group was administered with the extract obtained according to Example 1 dissolved in a solution of dimethylsulfoxide:ethanol (3:1) in an amount of 100 mg/kg, and the compound-administered group was administered with the compound of Formula 2 dissolved in a solution of dimethylsulfoxide:ethanol (3:1) in an amount of 10 mg/kg. All groups were treated three times by oral administration per one week, and the entire administration period was 2 months. […]

[3] = test system: endogenous nerve growth factor; test: Level of nerve growth factor in serum of diabetes-induced mouse (ELISA); format: in vivo, alloxan-induced diabetic ICR mice; settings: diabetes-induced mice, compound 10 mg/kg p.o., three times per week, one month
Protocol: An alloxan-induced diabetic mouse was prepared as an animal model having diabetic neuropathy, one of the multiple neuropathies.
7-week old male ICR mice underwent alimentary abstinence for 18 hours, and then alloxan dissolved in a physiological saline was once injected to them by intraperitoneal injection in an amount of 160 mg/kg to induce diabetes. Mice that maintained their fasting blood sugar to 200 mg/dl or more for one week, that is, diabetes-induced mice were selected and then divided into a control group (n=10), an extract-administered group (n=10), and a compound-administered group (n=10). The control group was administered with 0.2 ml of a solution of dimethylsulfoxide:ethanol (3:1), the extract-administered group was administered with the extract obtained according to Example 1 dissolved in a solution of dimethylsulfoxide:ethanol (3:1) in an amount of 100 mg/kg, and the compound-administered group was administered with the compound of Formula 2 dissolved in a solution of dimethylsulfoxide:ethanol (3:1) in an amount of 10 mg/kg. The all groups were orally administered three times per one week, and the entire administration period was one month. The amount of an endogenous nerve growth factor in the serum was measured by ELISA. […]

[4] = test system: endogenous nerve growth factor; test: Level of nerve growth factor in sciatic nerve of diabetes-induced mouse (ELISA); format: in vivo, alloxan-induced diabetic ICR mice; settings: diabetes-induced mice, 10 mg/kg P.O three times per week, one month
Protocol: 7-week old male ICR mice underwent alimentary abstinence for 18 hours, and then alloxan dissolved in a physiological saline was once injected to them by intraperitoneal injection in an amount of 160 mg/kg to induce diabetes. Mice that maintained their fasting blood sugar to 200 mg/dl or more for one week, that is, diabetes-induced mice were selected and then divided into a control group (n=5), and a compound-administered group (n=5). The control group was administered with 0.2 ml of a solution of dimethylsulfoxide:ethanol (3:1), and the compound-administered group was administered with the compound of Formula 2 dissolved in a solution of dimethylsulfoxide:ethanol (3:1) in an amount of 10 mg/kg. The all groups were orally administered three times per one week, and the entire administration period was one month. The amount of an endogenous nerve growth factor in the sciatic nerve was measured by ELISA (see FIG. 7)
Accordingly, it is considered that the results shown in FIGS. 5 and 6 result from the nerve protecting function of the nerve growth factor.

[5] = test system: sciatic nerve of diabetes-induced mouse; test: Transmission speed of motor nerve and sensory nerve of sciatic nerve in diabetes-induced mouse; format: in vivo, alloxan-induced diabetic ICR mice; settings: diabetes-induced mice, 10 mg/kg p.o. three times per week
Protocol: The therapeutic effect of the compound according to the present invention on the diabetic neuropathy, one of the multiple neuropathies, was identified by measuring the effect of the compound according to the present invention on the transmission speed of the motor nerve and sensory nerve in the sciatic nerve.
7-week old male ICR mice underwent alimentary abstinence for 18 hours, and then alloxan dissolved in a physiological saline was once injected to them by intraperitoneal injection in an amount of 160 mg/kg to induce diabetes. Mice that maintained their fasting blood sugar to 200 mg/dl or more for one week, that is, diabetes-induced mice were selected and then divided into a control group (n=7), and a compound-administered group (n=7). The control group was administered with 0.2 ml of a solution of dimethylsulfoxide:ethanol (3:1), and the compound-administered group was administered with the compound of Formula 2 dissolved in a solution of dimethylsulfoxide:ethanol (3:1) in an amount of 10 mg/kg. 7-week old male ICR mice in which diabetes was not induced were grouped as a normal group (n=7), and the normal group was administered with 0.2 ml of a solution of dimethylsulfoxide:ethanol (3:1). […] Administration-completed mice were sacrificed by cervical dislocation, and then the skin and muscle in the femoral region were quickly removed. Then, left and right sciatic nerves were respectively separated in a length of 20 mm or more and stored in a physiological saline while air flows through the physiological saline. The separated sciatic nerves were placed on a 20 mm round measurement plate. Then, a sensor and a stimulating probe were connected to respective neuroterminals and the electrical conductivity was measured using a digital storage oscilloscope to assess the nerve transmission speed (see FIGS. 5 and 6.)
In general, the myelin is a phospholipid membrane surrounding axons with several layers, and also called as myelin sheath. […]

PC 12 cell = test: Measurement of neurite outgrowth; format: cell-based; settings: PC12 cells, neurite length measured after 48 hours, vs ethanol control
Protocol: In an incubator with conditions including 5% CO2 and a temperature of 37° C., PC 12 cell (pheochromocytoma, ATCC Number: CRL-1721) was cultured in a RPMI 1640 medium supplemented with horse serum (10%, v/v), fetal bovine serum (5%, v/v), and 1% penicillin-streptomycin
In order to find the effect of the compound of Formula 2 on the neurite outgrowth, the mediums supplemented with 2% horse serum, 1% fetal bovine serum, and 1% penicillin-streptomycin were added to each 6-well plate coated with poly-d-lysine and then the PC12 cells were inoculated in 5×10^4 cells each well. After 24 hours, these wells were treated with 10 □/ml of ethanol, 10 □/□ of the compound of Formula 2, and 50 ng/□ of a nerve growth factor (R&D system, USA), respectively. Then, after 48 hours, the length of the neurite was measured using an inverted image contrast microscope (CK-2, Olympus, USA) (See FIG. 1 and FIG. 2)

[6] = test system: endogenous nerve growth factor; test: Level of nerve growth factor in mouse serum (ELISA); format: in vivo; settings: normal male ICR mice, 10 mg/kg orally once, after 24 hours
Protocol: The compound of Formula 2 was dissolved in 0.2 ml of a solution of dimethyl-sulfoxide:ethanol (3:1), and then orally administered once to 7-week old male ICR mice (n=7) in an amount of 10 mg/kg. After 24 hours, the amount of an endogenous nerve growth factor was measured by ELISA. As a control group, an ICR mouse was orally administered once with 0.2 ml of the dimethylsulfoxide:ethanol (3:1). Then, the amount of a nerve growth factor in the control group was measured in the same manner as described above.

Compound | sorbitol in the sciatic nerve, lower than diabetes-induced control group [1] [%] | histology of axon and myelin in the central part of the sciatic nerve [2] | endogenous nerve growth factor in the serum relative to vehicle control group [3] | nerve growth factor in the sciatic nerve, higher than vehicle control group [4] | transmission speed of the sensory nerve, higher than diabetes-induced control group ([5]; one month) [%] | transmission speed of the motor nerve, higher than control group ([5]; two months) [%] | transmission speed of the sensory nerve, higher than control group ([5]; two months) [%] | neurite outgrowth (PC 12 cell; 10 □/□ of the compound) | nerve growth factor in the serum relative to control group [6] | neurite outgrowth (PC 12 cell; 50 ng/□ of nerve growth factor)
C[C@@H]1CC[C@@]2(OC1)O[C@H]1C[C@H]3[C@@H]4CC=C5C[C@@H](O)CC[C@]5(C)[C@H]4CC[C@]3(C)[C@H]1[C@@H]2C [compound of Formula 2, 3beta, 25R-spirost-5-en-3-ol] | 10 | clearly observed | four | about 30% | 25 | 40 | 45 | neurite outgrowth was induced | about 2.5 times | 
nerve growth factor: nerve growth factor (R&D system, USA), positive control for neurite outgrowth [reference compound] |  |  |  |  |  |  |  |  |  | neurite outgrowth was induced
